Laboratory results: patent US9000045B2, “CETP activity inhibitors” (Japan Tobacco Inc., priority 1997, dated 2015)
pIC50: −log10 of the molar value.

What was measured:
CETP [1] = biological target: T1, CETP (Homo sapiens, UniProt P11597); test: In vitro CETP activity inhibitory effect in whole plasma; format: biochemical; parameters: Plasma containing [^3H]CE-HDL3 (600,000 dpm/ml) was prepared by adding donor lipoprotein obtained in the above (1) to plasma from healthy subjects; from tissue; host or cells: whole plasma of healthy subjects; settings: plasma from healthy subjects containing [3H]CE-HDL3, incubated 4 hours at 37° C.; read-out: CETP activity inhibition in whole plasma IC50
T1 sequence (P11597 18-493): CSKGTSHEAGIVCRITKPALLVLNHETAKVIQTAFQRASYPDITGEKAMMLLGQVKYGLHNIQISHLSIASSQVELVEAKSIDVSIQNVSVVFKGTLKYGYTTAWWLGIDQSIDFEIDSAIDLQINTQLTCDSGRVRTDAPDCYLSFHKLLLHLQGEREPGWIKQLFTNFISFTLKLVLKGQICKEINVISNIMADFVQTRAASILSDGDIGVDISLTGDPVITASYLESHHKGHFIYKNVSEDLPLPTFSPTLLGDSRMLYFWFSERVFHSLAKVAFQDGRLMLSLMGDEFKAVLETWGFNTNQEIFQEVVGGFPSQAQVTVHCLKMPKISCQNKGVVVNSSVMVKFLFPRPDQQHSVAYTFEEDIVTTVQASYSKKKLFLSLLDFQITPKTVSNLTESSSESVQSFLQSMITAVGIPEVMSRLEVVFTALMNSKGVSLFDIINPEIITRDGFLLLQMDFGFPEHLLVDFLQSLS
Outline: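 HDL3 was labelled with tritiated cholesterol (10 nM) for 18 h at 37° C in PBS with EDTA (pH 7.4). Test samples were in 1:1 N-methylpyrrolidone/PEG 400 and assayed in whole plasma. IC50 was calculated from % inhibition of CETP activity.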

CETP [2] = biological target: T1, CETP; test: Ex vivo CETP activity inhibitory effect of plasma from transgenic mice; parameters: from tissue; host or cells: plasma of transgenic mice carrying the human CETP gene; settings: mouse, po, p.o., 6 hours after administration, transgenic mice with human CETP gene, read-out: CETP activity inhibitory rate in plasma from transgenic mouse
Protocol: Potassium bromide (KBr) was added to the plasma of healthy subjects (40 ml) to adjust specific gravity to d=1.125 g/ml. Density gradient centrifugation (227,000×g, 4° C., 17 hours) was conducted to obtain a fraction with specific gravity d>1.125 g/ml (HDL3 fraction). The fraction thus obtained was dialyzed against a PBS solution [10 mM Na2HPO4/10 mM NaH2PO4/0.15 M NaCl/1 mM EDTA (pH 7.4)]. Then, tritium-labeled cholesterol (10 nM) (50.3 Ci/mM) was dissolved in 95% ethanol and added gradually to the above HDL3 fraction under stirring. The solution was incubated for 18 hours at 37° C. [Tritium-labeled cholesterol was esterified by this procedure by the action of lecithin:cholesterol acyltransferase (LCAT) present on the surface of HDL3 and taken up into the interior of HDL3 as tritium-labeled cholesterylester ([^3H]CE)]. After incubation, KBr was added and specific gravity was adjusted to d=1.21 g/ml. Density gradient centrifugation (227,000×g, 4° C., 17 hours) was conducted and the fraction with d<1.21 g/ml was harvested. The fraction thus obtained was dialyzed against the above PBS solution to obtain HDL3 that took up [^3H]CE ([^3H]CE-HDL3, specific gravity: 1.125<d<1.21, specific activity: 101,000 dpm/nM), which served as donor lipoprotein.
Physiological saline (specific gravity d=1.006 g/ml) was layered upon the plasma of healthy subjects (100 ml). Density gradient centrifugation (227,000×g, 4° C., 4 hours) was conducted and the fraction with specific gravity d>1.006 g/ml was harvested. KBr was added to the fraction thus obtained to adjust specific gravity to d=1.063 g/ml and density gradient centrifugation (227,000×g, 4° C., 20 hours) was conducted to harvest the fraction with specific gravity […]. The thus-obtained fraction was dialyzed against the above PBS solution to obtain fractions containing IDL and LDL (specific gravity: 1.006<d<1.063), which served as acceptor lipoprotein.
Samples were suspended in a 0.5% methylcellulose solution and administered orally using a plastic probe to transgenic mice having introduced human CETP gene (hereafter referred to as mice; prepared using the method described in Japanese Patent Application No. Hei 8-130660), which had been fasted overnight. Blood was collected before administration, and 6 hours after administration CETP activity in the plasma was determined using the following method.
Donor lipoprotein ([^3H]CE-HDL3, containing 0.21 μg cholesterol) obtained in the above (1), acceptor lipoprotein obtained in the above (2) (containing 21 μg of cholesterol), and 0.9 μl of mice plasma were added to microtubes. A total volume was adjusted to 600 μl/tube with a TBS solution [10 mM Tris/0.15 M NaCl (pH 7.4)]. The microtubes were incubated for 15 hours at 37° C. or 4° C. Then, an ice-cooled TBS solution (400 μl/tube) and a 0.3% dextran sulfate solution (100 μl/tube) containing 0.15 M magnesium chloride were added to the microtubes and mixed well. After allowing the microtubes to stand for 30 minutes at 4° C., centrifugation (8,000 rpm, 4° C., 10 minutes) was carried out and radioactivity of the resulting supernatant (HDL fraction) was determined with a scintillation counter.

SMILES	pIC50 (CETP [1])	inhibition at 30 mg/kg (CETP [2])	inhibition at 10 mg/kg (CETP [2])	inhibition at 100 mg/kg (CETP [2])	inhibition at 300 mg/kg (CETP [2]; 300 mg/kg)
CC(=O)N[C@H](C(=O)Sc1ccccc1NC(=O)C1(CCC(C)C)CCCCC1)C(C)C [Example 25-45]	4.89	21%	–	–	–
CCC(CC)CC1(C(=O)Nc2ccccc2SC(=O)COC)CCCCC1 [Example 61]	5.40	38%	–	–	–
CC(C)CCC1(C(=O)Nc2ccc(F)cc2SC(=O)C(C)(C)C)CCCCC1 [Example 81]	4.68	10%	–	–	–
CC(C)CCC1(C(=O)Nc2ccccc2SC(=O)C(C)C)CCCCC1 [Example 40]	4.64	48%	20%	64%	–
CC(=O)Sc1cc(Cl)c(Cl)cc1NC(=O)C1(CCC(C)C)CCCCC1 [Example 25-84]	5.00	–	–	17%	–
COc1ccc(NC(=O)Sc2ccccc2NC(=O)C2(CCC(C)C)CCCCC2)cc1 [Example 25-100]	4.80	25%	–	–	–
CCC(CC)CC1(C(=O)Nc2ccccc2SC(C)=O)CCCCC1 [Example 59]	5.40	44%	–	–	–
COCC(=O)Sc1ccccc1NC(=O)C1(CCC(C)C)CCCCC1 [Example 37]	5.15	42%	18%	47%	–
CC(C)CCC1(C(=O)Nc2ccccc2SC(=O)Nc2ccccc2)CCCC1 [Example 25-106]	5.00	29%	–	–	–
CC(C)CCC1(C(=O)Nc2cc(Cl)c(Cl)cc2SC(=O)NC(C)(C)C)CCCC1 [Example 25-108]	5.15	–	–	8%	–
CC(C)CCC1(C(=O)Nc2cc(C(F)(F)F)ccc2SC(=O)C(C)(C)C)CCCCC1 [Example 52]	5.10	8%	–	–	–
CSCC[C@H](NC(C)=O)C(=O)Sc1ccccc1NC(=O)C1(CCC(C)C)CCCCC1 [Example 25-57]	5.15	46%	18%	–	–
CC(C)CC1(C(=O)Nc2ccccc2SC(=O)C(C)C)CCCCC1 [Example 27, S-[2-(1-isobutylcyclohexanecarbonylamino)phenyl]2-methylthiopropionate]	5.15	31%	–	–	–
CC(=O)Sc1ccccc1NC(=O)C1(CCC(C)C)CCCC1 [Example 49]	5.22	29%	–	–	–
COc1ccccc1C(=O)Sc1ccccc1NC(=O)C1(CCC(C)C)CCCC1 [Example 25-63]	4.68	–	–	25%	–
CCC(CC)CC1(C(=O)Nc2ccccc2SC(=O)C2CCN(C(C)=O)CC2)CCCCC1 [Example 28, S[2-[1-(2-ethylbutyl)cyclohexanecarbonylamino)-phenyl]1-acetylpiperidine-4-thiocarboxylate]	5.22	36%	–	–	–
CC(C)CCC1(C(=O)Nc2ccccc2SC(=O)/C=C/c2ccccc2)CCCCC1 [Example 25-59]	5.10	37%	20%	–	–
CC(C)CCC1(C(=O)Nc2cc(F)c(F)cc2SC(=O)C(C)(C)C)CCCCC1 [Example 80]	5.22	12%	–	–	–
CC(C)CCC1(C(=O)Nc2ccccc2SC(=O)C(C)(C)C)CCCC1 [Example 48]	4.31	31%	–	50%	–
CC(C)CCC1(C(=O)Nc2cc(Cl)ccc2SC(=O)C(C)(C)C)CCCCC1 [Example 76]	4.74	4%	–	–	–
COc1ccc(NC(=O)Sc2ccccc2NC(=O)C2(CCC(C)C)CCCC2)cc1 [Example 25-107]	4.96	22%	–	–	–
CC(C)CCC1(C(=O)Nc2ccccc2S)CCCCC1 [Example 11, N-(2-mercaptophenyl)-1-isopentylcyclohexanecarboxamide]	5.30	45%	27%	57%	–
CC(C)CCC1(C(=O)Nc2ccccc2SC(=O)C(C)(C)C)CCCCC1 [Example 33]	4.21	39%	23%	52%	55%
Cc1ccc(NC(=O)C2(CCC(C)C)CCCCC2)c(S)c1 [Example 24]	4.54	29%	–	–	–
CC(=O)Sc1ccccc1NC(=O)C1(CCC(C)C)CCCCC1 [Example 25, S[2-(1-isopentylcyclohexanecarbonylamino)phenyl]thioacetate]	4.96	45%	19%	52%	–
CC(C)CCC1(C(=O)Nc2cc(Cl)c(Cl)cc2SC(=O)NC(C)(C)C)CCCCC1 [Example 25-102]	5.10	–	–	9%	–
CC(C)CCC1(C(=O)Nc2cc([N+](=O)[O-])ccc2SC(=O)C(C)(C)C)CCCCC1 [Example 74]	4.85	5%	–	–	–
CC(C)CCC1(C(=O)Nc2ccccc2SC(=O)C2(N)CCCCC2)CCCCC1 [Example 47]	5.22	31%	–	–	–
CC(C)CCC1(C(=O)Nc2ccccc2SC(=O)C2CCN(C)CC2)CCCCC1 [Example 25-53]	5.15	26%	–	–	–
CC(C)CCC1(C(=O)Nc2ccccc2SC(=O)C(C)(C)O)CCCCC1 [Example 46]	5.30	48%	22%	–	–
